Patent US20090291977A1, “Chromane Derivatives Useful As Acid Pump Antagonists” (priority 2004, published 2009)

Each molecule was assayed against T1, Porcine gastric H+/K+-ATPase (Sus scrofa, UniProt P19156) (assay: Ion-leaky porcine gastric H+/K+-ATPase inhibition). Conditions: ion-leaky vesicles, 5 mM KCl, pH 6.4, 37° C., 30 minutes.
T1 construct: The gastric vesicles were collected from interface on 0.25 M sucrose layer containing 7% Ficoll; from tissue; host or cells: mucous membrane of fresh porcine stomachs (gastric vesicles)
T1 sequence (P19156 2-1034 limits assumed): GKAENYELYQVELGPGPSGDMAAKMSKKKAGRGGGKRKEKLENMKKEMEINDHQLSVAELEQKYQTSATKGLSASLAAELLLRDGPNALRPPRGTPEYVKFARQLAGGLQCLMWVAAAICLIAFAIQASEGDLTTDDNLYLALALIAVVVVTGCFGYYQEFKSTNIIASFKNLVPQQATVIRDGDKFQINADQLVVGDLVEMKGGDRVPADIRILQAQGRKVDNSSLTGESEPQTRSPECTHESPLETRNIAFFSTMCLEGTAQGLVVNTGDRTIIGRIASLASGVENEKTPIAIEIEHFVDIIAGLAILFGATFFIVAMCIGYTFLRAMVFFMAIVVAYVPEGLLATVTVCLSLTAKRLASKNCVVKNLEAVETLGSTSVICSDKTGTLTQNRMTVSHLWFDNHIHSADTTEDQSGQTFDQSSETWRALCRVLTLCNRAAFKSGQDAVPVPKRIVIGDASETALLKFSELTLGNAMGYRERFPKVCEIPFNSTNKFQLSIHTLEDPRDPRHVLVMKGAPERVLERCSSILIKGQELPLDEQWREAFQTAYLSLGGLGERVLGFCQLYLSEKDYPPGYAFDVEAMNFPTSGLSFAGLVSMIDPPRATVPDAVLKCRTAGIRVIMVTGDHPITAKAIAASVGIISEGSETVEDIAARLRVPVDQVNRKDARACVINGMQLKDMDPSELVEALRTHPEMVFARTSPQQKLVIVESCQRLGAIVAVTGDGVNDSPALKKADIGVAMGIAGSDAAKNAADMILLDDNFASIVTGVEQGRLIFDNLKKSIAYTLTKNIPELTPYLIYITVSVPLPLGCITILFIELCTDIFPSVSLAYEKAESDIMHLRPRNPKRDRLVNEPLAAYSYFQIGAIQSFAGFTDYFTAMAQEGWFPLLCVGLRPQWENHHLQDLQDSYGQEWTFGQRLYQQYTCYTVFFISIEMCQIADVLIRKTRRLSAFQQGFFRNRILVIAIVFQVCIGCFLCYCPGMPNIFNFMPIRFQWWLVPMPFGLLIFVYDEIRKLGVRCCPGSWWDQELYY
T1 sequence (P18434 whole entry partner): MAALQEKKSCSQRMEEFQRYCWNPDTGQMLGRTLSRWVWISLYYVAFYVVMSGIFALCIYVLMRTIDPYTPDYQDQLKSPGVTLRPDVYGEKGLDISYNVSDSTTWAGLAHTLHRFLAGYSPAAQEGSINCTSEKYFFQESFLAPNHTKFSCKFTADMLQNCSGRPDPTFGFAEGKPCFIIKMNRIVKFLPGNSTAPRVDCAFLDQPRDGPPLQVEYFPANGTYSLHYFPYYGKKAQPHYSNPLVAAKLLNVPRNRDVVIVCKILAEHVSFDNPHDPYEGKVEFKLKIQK
Format: biochemical
Procedure: The porcine gastric vesicles for Porcine gastric H^+/K^+-ATPase inhibition assays were prepared from mucous membrane in fresh porcine stomachs by homogenization with a tight-fitted polytetrafluoroethylene (Teflone®) homogenizer in 0.25 M sucrose at 4° C. The crude pellet was removed with centrifugation at 20,000 g for 30 min. Then supernatant was centrifuged at 100,000 g for 30 min. The resulting pellet was re-suspended in 0.25 M sucrose, and then subjected to density gradient centrifugation at 132,000 g for 90 min. The gastric vesicles were collected from interface on 0.25 M sucrose layer containing 7% Ficoll™ PM400(Amersham Biosciences). This procedure was performed in a cold room.
Ion-leaky porcine gastric H^+/K^+-ATPase-inhibition was measured according to the modified method described in Biochemical Pharmacology, 1988, 37, 2231-2236.
The isolated vesicles were lyophilized, and then kept in deep-freezer until use. For enzyme assay, lyophilized vesicles were reconstituted with 3 mM MgSO4 containing 40 mM Bis-tris (pH 6.4 at 37° C.).
Enzyme reaction was performed incubating 5 mM KCl, 3 mM Na2ATP, 3 mM MgSO4 and 1.0 μg of reconstituted vesicles for 30 minutes at 37° C. in a final 60 μl of reaction mixture (40 mM Bis-tris, pH 6.4) with or without the test compound. Enzyme reaction was stopped by adding 10% sodium dodecyl sulphate (SDS). Released inorganic phosphate from ATP was detected by incubation with mixture of 1 part of 35 mM ammonium molybdate tetrahydrate in 15 mM Zinc acetate hydrate and 4 parts of 10% ascorbic acid (pH 5.0), resulting in phosphomolybdate, which has optical density at 750 nm.

| IC50 | Structure (SMILES) |
| --- | --- |
| 20.5 nM | Cc1nc2c(NC3CCOc4cc(F)ccc43)cc(C(=O)N(C)CCO)cn2c1C (single isomer, unassigned) [Example 7-2, 8-[(7-Fluoro-3,4-dihydro-2H-chromen-4-yl)amino]-N-(2-hydroxyethyl)-N,2,3-trimethylimidazol[1,2-a]pyridlne-6-carboxamide] |
| 13.9 nM | Cc1nc2c(NC3CCOc4cc(F)ccc43)cc(C(=O)N(C)C)cn2c1C (racemic) [Example 6-1, 8-[(7-Fluoro-3,4,dihydro-2H-chromen-4-yl)amino]-N,N,2,3-tetramethylimidazo[1,2-a]pyridine-6-carboxamide] |
| 240 nM | Cc1nc2c(NC3CCOc4cccc(Cl)c43)cc(C(=O)N(C)C)cn2c1C (single isomer, unassigned) [Example 18-3, 8-[(5-Chloro-3,4-dihydro-2H-chromen-4-yl)amino]-N,N,2,3-tetramethylimidazo[1,2-a]pyridine-6-carboxamide] |
| 75.1 nM | Cc1nc2c(NC3CCOc4cccc(F)c43)cc(C(=O)N(C)C)cn2c1C (racemic) [Example 10-1, 8-[(5-Fluoro-3,4-dihydro-2H-chromen-4-yl)amino]-N,N,2,3-tetramethylimidazo[1,2-a]pyridine-6-carboxamide] |
| 51.1 nM | Cc1nc2c(NC3CCOc4cccc(F)c43)cc(C(=O)N(C)C)cn2c1C (single isomer, unassigned) [Example 10-2, 8-[(5-Fluoro-3,4-dihydro-2H-chromen-4-yl)amino]-N,N,2,3-tetramethylimidazo[1,2-a]pyridine-6-carboxamide] |
| 81.1 nM | Cc1nc2c(NC3CCOc4ccc(F)cc43)cc(C(=O)N(C)C)cn2c1C (single isomer, unassigned) [Example 12-3, 8-[(6-Fluoro-3,4-dihydro-2H-chromen-4-yl)amino]-N,N,2,3-tetramethylimidazo[1,2-a]pyridine-6-carboxamide] |
| 61.9 nM | Cc1nc2c(NC3CCOc4ccccc43)cc(C(=O)N(C)C)cn2c1C (single isomer, unassigned; (-)) [Example 1-2, (−)-8-(3,4-Dihydro-2H-chromen-4-ylamino)-N,N,2,3-tetramethylimidazo[1,2-a]pyridine-6-carboxamide] |
| 91 nM | Cc1nc2c(NC3CCOc4cccc(F)c43)cc(C(=O)N(C)C)cn2c1C (single isomer, unassigned) [Example 10-3, 8-[(5-Fluoro-3,4-dihydro-2H-chromen-4-yl)amino]-N,N,2,3-tetramethylimidazo[1,2-a]pyridine-6-carboxamide] |
| 85 nM | Cc1nc2c(NC3CCOc4ccccc43)cc(C(=O)N(C)C)cn2c1C (racemic) [Example 1-1, 8-(3,4-Dihydro-2H-chromen-4-ylamino)-N,N,2,3-tetramethylimidazo[1,2-a]pyridine-6-carboxamide] |
| 20 nM | Cc1nc2c(NC3CCOc4cc(F)cc(F)c43)cc(C(=O)N(C)C)cn2c1C (racemic) [Example 8-1, 8-[(5,7-Difluoro-3,4-dihydro-2H-chromen-4-yl)amino]-N,N,2,3-tetramethylimidazo[1,2-a]pyridine-6-carboxamide] |
| 170 nM | Cc1nc2c(NC3CCOc4c(F)cccc43)cc(C(=O)N(C)C)cn2c1C (single isomer, unassigned) [Example 14-3, 8-[(8-Fluoro-3,4-dihydro-2H-chromen-4-yl)amino]-N,N,2,3-tetramethylimidazo[1,2-a]pyridine-6-carboxamide] |
| 43 nM | Cc1cccc2c1C(Nc1cc(C(=O)N(C)C)cn3c(C)c(C)nc13)CCO2 (single isomer, unassigned) [Example 17-2, N,N,2,3-Tetramethyl-8-[(5-methyl-3,4-dihydro-2H-chromen-4-yl)amino]imidazo[1,2-a]pyridine-6-carboxamide] |
| 23 nM | Cc1nc2c(NC3CCOc4cc(F)cc(F)c43)cc(C(=O)N(C)C)cn2c1C (single isomer, unassigned) [Example 8-2, 8-[(5,7-Difluoro-3,4-dihydro-2H-chromen-4-yl)amino]-N,N,2,3-tetramethylimidazo[1,2-a]pyridine-6-carboxamide] |

Second part, the molecule before the results:

| Structure (SMILES) | IC50 |
| --- | --- |
| Cc1nc2c(NC3CCOc4cc(F)cc(F)c43)cc(C(=O)N(C)CCO)cn2c1C (single isomer, unassigned) [Example 9-2, 8-[(5,7-Difluoro-3,4-dihydro-2H-chromen-4-yl)amino]-N-(2-hydroxyethyl)-N,2,3-trimethylimidazo[1,2-a]pyridine-6-carboxamide] | 15.9 nM |
| Cc1nc2c(NC3CCOc4ccccc43)cc(C(=O)N(C)CCO)cn2c1C (racemic) [Example 2-1, 8-(3,4-Dihydro-2H-chromen-4-ylamino)-N-(2-hydroxyethyl)-N,2,3-trimethylimidazo[1,2-a]pyridine-6-carboxamide] | 49.7 nM |
| Cc1nc2c(NC3CCOc4ccccc43)cc(C(=O)N(C)CCO)cn2c1C (single isomer, unassigned; (-)) [Example 2-2, (−)-8-(3,4-Dihydro-2H-chromen-4-ylamino)-N-(2-hydroxyethyl)-N,2,3-trimethylimidazo[1.2-a]pyridine-6-carboxamide] | 81.1 nM |
| Cc1nc2c(NC3CCOc4ccc(F)cc43)cc(C(=O)N(C)CCO)cn2c1C (single isomer, unassigned) [Example 13-2, 8-[(6-Fluoro-3,4-dihydro-2H-chromen-4-yl)amino]-N-(2-hydroxyethyl)-N,2,3-trimethylimidazol[1,2-a]pyridine-6-carboxamide] | 1100 nM |
| Cc1nc2c(NC3CCOc4cc(F)cc(F)c43)cc(C(=O)N(C)CCO)cn2c1C (racemic) [Example 9-1, 8-[(5,7-Difluoro-3,4-dihydro-2H-chromen-4-yl)amino]-N-(2-hydroxyethyl)-N,2,3-trimethylimidazo[1,2-a]pyridine-6-carboxamide] | 50 nM |
| Cc1nc2c(NC3CCOc4cc(F)cc(F)c43)cc(C(=O)N(C)C)cn2c1C (single isomer, unassigned) [Example 8-3, 8-[(5,7-Difluoro-3,4-dihydro-2H-chromen-4-yl)amino]-N,N,2,3-tetramethylimidazo[1,2-a]pyridine-6-carboxamide] | 49 nM |
| Cc1ccc2c(c1)OCCC2Nc1cc(C(=O)N(C)CCO)cn2c(C)c(C)nc12 (racemic) [Example 16-1, N-(2-Hydroxyethyl)-N,2,3-trimethyl-8-[(7-methyl-3,4-dihydro-2H-chromen-4-yl)amino]imidazo[1,2-a]pyridine-6-carboxamide] | 331 nM |
| Cc1nc2c(NC3COCc4ccccc43)cc(C(=O)N(C)C)cn2c1C (single isomer, unassigned; (+)) [Example 3-3, (+)-8-(3,4-Dihydro-1H-isochromen-4-ylamino)-N,N,2,3-tetramethylimidazo[1,2-a]pyridine-6-carboxamide] | 67.6 nM |
| Cc1nc2c(NC3CCOc4c(F)cccc43)cc(C(=O)N(C)CCO)cn2c1C (single isomer, unassigned) [Example 15-2, 8-[(8-Fluoro-3,4-dihydro-2H-chromen-4-yl)amino]-N-(2-hydroxyethyl)-N,2,3-trimethylimidazol[1,2-a]pyridine-6-carboxamide] | 230 nM |
| Cc1cccc2c1C(Nc1cc(C(=O)N(C)CCO)cn3c(C)c(C)nc13)CCO2 (racemic) [Example 5-1, N-(2-Hydroxyethyl)-N,2,3-trimethyl-8-[(5-methyl-3,4-dihydro-2H-chromen-4-yl)amino]imidazo[1,2-a]pyridine-6-carboxamide] | 94.7 nM |
| Cc1cccc2c1C(Nc1cc(C(=O)N(C)CCO)cn3c(C)c(C)nc13)CCO2 (single isomer, unassigned; (-)) [Example 5-2, (−)-N-(2-Hydroxyethyl)-N,2,3-trimethyl-8-[(5-methyl-3,4-dihydro-2H-chromen-4-yl)amino]imidazo[1,2-a]pyridine-6-carboxamide] | 86.2 nM |
| Cc1nc2c(NC3COCc4ccccc43)cc(C(=O)N(C)CCO)cn2c1C (racemic) [Example 4-1, 8-(3,4-Dihydro-1H-isochromen-4-ylamino)-N-(2-hydroxyethyl)-N,2,3-trimethylimidazo[1,2-a]pyridine-6-carboxamide] | 87.1 nM |
| Cc1nc2c(NC3CCOc4cccc(Cl)c43)cc(C(=O)N(C)CCO)cn2c1C (racemic) [Example 19-1, 8-[(5-Chloro-3,4-dihydro-2H-chromen-4-yl)amino]-N-(2-hydroxyethyl)-N,2,3-trimethylimidazo[1,2-a]pyridine-6-carboxamide] | 390 nM |
| Cc1nc2c(NC3COCc4ccccc43)cc(C(=O)N(C)C)cn2c1C (single isomer, unassigned; (-)) [Example 3-2, (−)-8-(3,4-Dihydro-1H-isochromen-4-ylamino)-N,N,2,3-tetramethylimidazo[1,2-a]pyridine-6-carboxamide] | 125 nM |
| Cc1nc2c(NC3COCc4ccccc43)cc(C(=O)N(C)CCO)cn2c1C (single isomer, unassigned; (+)) [Example 4-3, (+)-8-(3,4-Dihydro-1H-isochromen-4-ylamino)-N-(2-hydroxyethyl)-N,2,3-trimethylimidazo[1,2-a]pyridine-6-carboxamide] | 112 nM |
